The subject of assay [1] is VSV luc particles bearing the native VSV G glycoprotein. Format: cell-based, vesicular stomatitis virus.

With `CCCCc1oc2ccccc2c1C(=O)c1cc(I)c(OCCN(CC)CC)c(I)c1` [amiodarone], in the assay with EboV, the anti-EboV activity entry is “weak anti-EboV activity”. Same read-out and setting: as for `CCOC(=O)C1=C(COCCN)NC(C)=C(C(=O)OC)C1c1ccccc1Cl` (stereo not drawn) [amlodipne], the entry is “weak anti-EboV activity”. As to `CCOc1ccc(S(=O)(=O)N(C)c2ccc(OCC(=O)N(C)C3CCN(C)CC3)cc2)cc1` [compound 6], the “specificity for EboV GP versus VSV G particles” value in assay [1] is “EboV specific”. Same read-out and setting: as for `Oc1ccc(/C=N/n2c(-c3ccco3)cs/c2=N\c2ccc(F)cc2F)c(O)c1` [compound 7], the entry is “EboV specific”; as for `COC(=O)c1ccc(-c2ccco2)n1Cc1cccc(F)c1` [compound 8], “EboV specific”.

In the case of `COc1ccc([C@@H]2Sc3ccccc3N(CCN(C)C)C(=O)[C@@H]2OC(C)=O)cc1` [diltiazen], the anti-EboV activity entry with EboV was “weak anti-EboV activity”.

(Values after patent US9676763B2 (priority 2010, dated 2017).)
